The target in the test is T1, AsPC-1 HiBiT-KRASG12D (Homo sapiens, UniProt P01116, G12D).
T1 construct: insert the HiBiT tag onto the N-terminus of one or more of the endogenous KRAS alleles; endogenous in cells; host or cells: AsPC-1 (ATCC CRL-1682), CRISPR-Cas9 knock-in clone, one tagged allele
Briefly: HiBiT degradation assay (G12D), AsPC-1 HiBiT-KRASG12D cells. Type of test: cell-based. The settings on record: 24 hours treatment; for DC50: AsPC-1 HiBiT-KRASG12D cells, HiBiT luminescence; for Dmax: ASPC1, AsPC-1 HiBiT-KRASG12D cells, maximum degradation observed. From the text: Reagents. […] SW1573 cells are homozygous for the G12C mutation in KRAS, AsPC-1 cells are homozygous for the G12D mutation, and SW620 cells are homozygous for the G12V mutation. […] For degradation assays, 384 well plates were used. Alamar blue was purchased from ThermoFisher scientific (A50101) and used according to manufacturer instructions. The Nano-Glo® HiBiT Lytic Detection System and Nano-Glo® HiBiT Blotting System were purchased from Promega (#N3050 and #N2410) and used according to manufacturer instructions.
To create the AsPC-1 HiBiT-KRASG12D cell line, CRISPR-Cas9 was used to insert the HiBiT tag onto the N-terminus of one or more of the endogenous KRAS alleles. […] After knock-in of the tag, individual clones were isolated by single cell dilution and screened for HiBiT insertion by PCR. […] This clone was used in further studies.
HiBiT degradation assays (G12C and G12D). […] All assays were performed in triplicate. Cells were treated with compounds for 24 hours at 37° C. in an incubator containing 5% CO2. Following treatment, alamar blue was used to determine if any compounds led to a loss in cell viability after 24 hours. The 10× alamar blue reagent was added to a final concentration of 1× as recommended by the manufacturer and cells were returned to the incubator for 4 hours. Plates were then allowed to equilibrate to room temperature and fluorescence was measured using a Perkin-Elmer EnVision. After completion of the fluorescence read, the liquid from each well was removed and the cells were washed with PBS. The Nano-Glo® HiBiT detection reagent was prepared according to the manufacturer's instructions and added to each well after the PBS wash was removed. Following incubation at room temperature for 45 minutes, the luminescence was read using the ultra-sensitive luminescence aperture on the Envision instrument.
Data analysis. Fluorescence values from the alamar blue treatment were normalized to the DMSO-only control for each compound titration.
Background: With HiBiT, luminescence reflects the tagged protein that the partner subunit can reach.

Bounds are passed on as bounds.

T1 sequence (P01116 1-188 isoform P01116-2 G12D): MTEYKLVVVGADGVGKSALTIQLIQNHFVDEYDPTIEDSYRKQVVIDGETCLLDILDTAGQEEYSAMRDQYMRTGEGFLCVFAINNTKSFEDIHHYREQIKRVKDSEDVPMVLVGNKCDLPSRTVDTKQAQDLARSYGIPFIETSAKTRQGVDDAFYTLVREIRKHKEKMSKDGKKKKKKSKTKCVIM

Compound `CCc1cccc2cccc(-c3ncc4c(N5CCCCCC5)nc(OC[C@@]56CCCN5[C@@H](COC(=O)N5CCN(c7cc([C@H](C(=O)N8C[C@H](O)C[C@H]8C(=O)N[C@@H](C)c8ccc(-c9scnc9C)cc8)C(C)C)on7)CC5)CC6)nc4c3F)c12` (relative stereo) [Compound 49] returned a DC50 of more than 3000 nM. `Cc1ncsc1-c1ccc([C@H](C)NC(=O)[C@@H]2C[C@@H](O)CN2C(=O)[C@@H](c2cc(N3CCN(C(=O)OC[C@H]4CC[C@]5(COc6nc(N7CC8CCC(C7)N8)c7cnc(-c8cccc9ccc(F)c(F)c89)c(F)c7n6)CCCN45)CC3)no2)C(C)C)cc1` (relative stereo) [Compound 63, [(3R,7aS)-7a-{[(4-{3,8-diazabicyclo[3.2.1]octan-3-yl}-7-(7,8-difluoronaphthalen-1-yl)-8-fluoropyrido[4,3-d]pyrimidin-2-yl)oxy]methyl}-hexahydro-1H-pyrrolizin-3-yl]methyl 4-{5-[(2R*)-1-[(2S,4R)-4-hydroxy-2-{[(1S)-1-[4-(4-methyl-1,3-thiazol-5-yl)phenyl]ethyl]carbamoyl}pyrrolidin-1-yl]-3-methyl-1-oxobutan-2-yl]-1,2-oxazol-3-yl}piperazine-1-carboxylate] came in with a Dmax of 20 to 60% and a DC50 of less than 600 nM.

In turn, `Cc1ncsc1-c1ccc([C@H](C)NC(=O)[C@@H]2C[C@@H](O)CN2C(=O)[C@@H](c2cc(N3CC4(CCN(CCOc5nc(N6CC7CCC(C6)N7)c6cnc(-c7cc(O)cc8ccc(F)c(F)c78)c(F)c6n5)CC4)C3)no2)C(C)C)cc1` (relative stereo) [Compound 68, (2S,4R)-1-[(2R*)-2-[3-(7-{2-[(4-{3,8-diazabicyclo[3.2.1]octan-3-yl}-7-(7,8-difluoro-3-hydroxynaphthalen-1-yl)-8-fluoropyrido[4,3-d]pyrimidin-2-yl)oxy]ethyl}-2,7-diazaspiro[3.5]nonan-2-yl)-1,2-oxazol-5-yl]-3-methylbutanoyl]-4-hydroxy-N-[(1S)-1-[4-(4-methyl-1,3-thiazol-5-yl)phenyl]ethyl]pyrrolidine-2-carboxamide] came in with a Dmax of 80 to 100% and a half-maximal degradation concentration (DC50) of less than 600 nM.

`CCc1cccc2cc(O)cc(-c3ncc4c(N5CC6CCC(C5)N6)nc(OCCN5CC[C@H]6CN(c7cc([C@H](C(=O)N8C[C@H](O)C[C@H]8C(=O)N[C@@H](C)c8ccc(-c9scnc9C)cc8)C(C)C)on7)C[C@H]6C5)nc4c3F)c12` (relative stereo) [Compound 69, (2S,4R)-1-[(2R*)-2-{3-[(3aR**,7aR***)-5-{2-[(4-{3,8-diazabicyclo[3.2.1]octan-3-yl}-7-(8-ethyl-3-hydroxynaphthalen-1-yl)-8-fluoropyrido[4,3-d]pyrimidin-2-yl)oxy]ethyl}-octahydro-1H-pyrrolo[3,4-c]pyridin-2-yl]-1,2-oxazol-5-yl}-3-methylbutanoyl]-4-hydroxy-N-[(1S)-1-[4-(4-methyl-1,3-thiazol-5-yl)phenyl]ethyl]pyrrolidine-2-carboxamide] gave a maximal degradation (Dmax) of 80 to 100% and a half-maximal degradation concentration (DC50) of less than 600 nM. With `CCc1cccc2cc(O)cc(-c3ncc4c(N5CC6CCC(C5)N6)nc(OCCN5CC[C@H]6CN(c7cc([C@@H](C(=O)N8C[C@H](O)C[C@H]8C(=O)N[C@@H](C)c8ccc(-c9scnc9C)cc8)C(C)C)on7)C[C@H]6C5)nc4c3F)c12` (relative stereo) [Compound 70, (2S,4R)-1-[(2R*)-2-{3-[(3aR**,7aR***)-5-{2-[(4-{3,8-diazabicyclo[3.2.1]octan-3-yl}-7-(8-ethyl-3-hydroxynaphthalen-1-yl)-8-fluoropyrido[4,3-d]pyrimidin-2-yl)oxy]ethyl}-octahydro-1H-pyrrolo[3,4-c]pyridin-2-yl]-1,2-oxazol-5-yl}-3-methylbutanoyl]-4-hydroxy-N-[(1S)-1-[4-(4-methyl-1,3-thiazol-5-yl)phenyl]ethyl]pyrrolidine-2-carboxamide], the half-maximal degradation concentration (DC50) is more than 3000 nM.

`CCc1cccc2cc(O)cc(-c3ncc4c(N5CC6CCC(C5)N6)nc(OCCN5CC[C@@H]6CN(c7cc([C@H](C(=O)N8C[C@H](O)C[C@H]8C(=O)N[C@@H](C)c8ccc(-c9scnc9C)cc8)C(C)C)on7)C[C@@H]6C5)nc4c3F)c12` (relative stereo) [Compound 71, (2S,4R)-1-[(2R*)-2-{3-[(3aR**,7aR***)-5-{2-[(4-{3,8-diazabicyclo[3.2.1]octan-3-yl}-7-(8-ethyl-3-hydroxynaphthalen-1-yl)-8-fluoropyrido[4,3-d]pyrimidin-2-yl)oxy]ethyl}-octahydro-1H-pyrrolo[3,4-c]pyridin-2-yl]-1,2-oxazol-5-yl}-3-methylbutanoyl]-4-hydroxy-N-[(1S)-1-[4-(4-methyl-1,3-thiazol-5-yl)phenyl]ethyl]pyrrolidine-2-carboxamide] showed a maximal degradation (Dmax) of 80 to 100% and a DC50 of less than 600 nM. For the compound `CCc1cccc2cc(O)cc(-c3ncc4c(N5CC6CCC(C5)N6)nc(OCCN5CC[C@@H]6CN(c7cc([C@@H](C(=O)N8C[C@H](O)C[C@H]8C(=O)N[C@@H](C)c8ccc(-c9scnc9C)cc8)C(C)C)on7)C[C@@H]6C5)nc4c3F)c12` (relative stereo) [Compound 72, (2S,4R)-1-[(2R*)-2-{3-[(3aR**,7aR***)-5-{2-[(4-{3,8-diazabicyclo[3.2.1]octan-3-yl}-7-(8-ethyl-3-hydroxynaphthalen-1-yl)-8-fluoropyrido[4,3-d]pyrimidin-2-yl)oxy]ethyl}-octahydro-1H-pyrrolo[3,4-c]pyridin-2-yl]-1,2-oxazol-5-yl}-3-methylbutanoyl]-4-hydroxy-N-[(1S)-1-[4-(4-methyl-1,3-thiazol-5-yl)phenyl]ethyl]pyrrolidine-2-carboxamide], the Dmax was less than 20% and the DC50 was more than 3000 nM. The like results for `CCc1cccc2cc(O)cc(-c3ncc4c(N5CC6CCC(C5)N6)nc(OCCN5CC[C@H]6[C@H](CCN6c6cc([C@H](C(=O)N7C[C@H](O)C[C@H]7C(=O)N[C@@H](C)c7ccc(-c8scnc8C)cc7)C(C)C)on6)C5)nc4c3F)c12` (relative stereo) [Compound 73, (2S,4R)-1-[(2R*)-2-{3-[(3aR**,7aR***)-5-{2-[(4-{3,8-diazabicyclo[3.2.1]octan-3-yl}-7-(8-ethyl-3-hydroxynaphthalen-1-yl)-8-fluoropyrido[4,3-d]pyrimidin-2-yl)oxy]ethyl}-octahydro-1H-pyrrolo[3,2-c]pyridin-1-yl]-1,2-oxazol-5-yl}-3-methylbutanoyl]-4-hydroxy-N-[(1S)-1-[4-(4-methyl-1,3-thiazol-5-yl)phenyl]ethyl]pyrrolidine-2-carboxamide] were, in that order, 80 to 100% and less than 600 nM.

`CCc1cccc2cc(O)cc(-c3ncc4c(N5CC6CCC(C5)N6)nc(OCCN5CC[C@@H]6[C@@H](CCN6c6cc([C@H](C(=O)N7C[C@H](O)C[C@H]7C(=O)N[C@@H](C)c7ccc(-c8scnc8C)cc7)C(C)C)on6)C5)nc4c3F)c12` (relative stereo) [Compound 74, (2S,4R)-1-[(2R*)-2-{3-[(3aR**,7aR***)-5-{2-[(4-{3,8-diazabicyclo[3.2.1]octan-3-yl}-7-(8-ethyl-3-hydroxynaphthalen-1-yl)-8-fluoropyrido[4,3-d]pyrimidin-2-yl)oxy]ethyl}-octahydro-1H-pyrrolo[3,2-c]pyridin-1-yl]-1,2-oxazol-5-yl}-3-methylbutanoyl]-4-hydroxy-N-[(1S)-1-[4-(4-methyl-1,3-thiazol-5-yl)phenyl]ethyl]pyrrolidine-2-carboxamide]: the Dmax was 80 to 100% and the DC50 was less than 600 nM. For the compound `CCc1cccc2cc(O)cc(-c3ncc4c(N5CC6CCC(C5)N6)nc(OCCN5CC[C@H]6[C@H](CCN6c6cc([C@@H](C(=O)N7C[C@H](O)C[C@H]7C(=O)N[C@@H](C)c7ccc(-c8scnc8C)cc7)C(C)C)on6)C5)nc4c3F)c12` (relative stereo) [Compound 75, (2S,4R)-1-[(2R*)-2-{3-[(3aR**,7aR***)-5-{2-[(4-{3,8-diazabicyclo[3.2.1]octan-3-yl}-7-(8-ethyl-3-hydroxynaphthalen-1-yl)-8-fluoropyrido[4,3-d]pyrimidin-2-yl)oxy]ethyl}-octahydro-1H-pyrrolo[3,2-c]pyridin-1-yl]-1,2-oxazol-5-yl}-3-methylbutanoyl]-4-hydroxy-N-[(1S)-1-[4-(4-methyl-1,3-thiazol-5-yl)phenyl]ethyl]pyrrolidine-2-carboxamide], the Dmax was in the range of 60 to 80% and the DC50 was in the range of 1000 to 3000 nM.

By DC50 is commonly meant the concentration at which degradation of the target reaches its halfway point. A lower DC50 goes with a more potent degrader. As a reminder, the Dmax is the largest share of the target that was removed.

(Values after patent US20250206732A1, “COMPOUNDS AND METHODS FOR THE TARGETED DEGRADATION OF KRAS” (Arvinas Operations, Inc., priority 2022, published 2025).)
